Patent US8450067B2, “Method for obtaining anti-idiotype antibodies” (Omrix Biopharmaceuticals Inc., priority 2002, dated 2013)
Read-outs that look alike come from different tables or passages of the source.

What was measured:
[1] = test system: control IgG (IgG purified from one donor); test: Direct binding ELISA, negative control immunoglobulin; set-up: species or system human; settings: Table 2
Method: (§1) The binding of anti-Id to the peptides was tested by ELISA.
(§2) ELISA plates were coated by 10 ug/ml of peptides in PBS overnight at 4° C. The plates were blocked with 3% BSA for 1hr at 37° C. Anti-Id was added at different concentrations. IgG purified from one donor was used as negative control.
(§3) The binding of the immunoglobulin was probed with goat anti-human IgG conjugated to alkaline phosphatase and the appropriate substrate. Between each step, extensive washings were performed with 0.05% PBS-Tween.
(§4) The same protocol was used as above, but the peptides used in this study were taken from the literature except for peptide number 1 which is the first peptide in the previous experiment.

[2] = test system: anti-anti-dsDNA (anti-Id) isolated from IVIG; test: Direct binding of anti-Id to the synthetic peptides by ELISA; set-up: species or system human; settings: Table 2
Method: as §1, §2, §3, §4

[3] = test system: immunoglobulin elution peak from a peptide column bound with peptide 707; test: ELISA of peptide column eluate with biotinylated peptides (707 column); format: binding, human; settings: FIG. 4
Method: To measure the binding efficacy of peptide column eluates (706 and 707) the following ELISA was performed:
Microtiter plates (Costar, USA) were coated overnight at 2-8° C. with 10 μg/ml NeutrAvidin (Pierce, USA) suspended in 0.1M, pH 8.8, of carbonate-bicarbonate buffer (Sigma USA). The coating solution was removed, washed three times with washing buffer (1×PBS) and 200 μl of blocking solution (freshly prepared 1% I Block, Tropix, USA) per well was added and incubated for 1 hour at 37° C. Coated and blocked plates can be stored at −20° C. for a month before use.
Tested samples diluted in the blocking solution were mixed in a separate tube with 1 μg/ml (final concentration) of the appropriate biotinylated peptide and the mixture was incubated for 1 hour at 37° C. 100 μl from each reaction tube was then transferred to the blocked microtiter plate and incubated at 37° C. for ½ hour. A 100 μl of 1:5000 Alkaline Phosphatase conjugate goat anti human IgG (Heavy and light chain from Jackson, USA) diluted in the blocking buffer was applied into the microtiter well and incubated for 1 hour. […] The measurement was done photometrically at 405 nm.

mice = settings: responder mice (BALB/c, SJL), cited from earlier work
[4] = anti-Id 10 μg/ml, plates coated with 10 ug/ml peptide

| binding of control IgG to peptide (OD at 405 nm) ([1]; control IgG 1 μg/ml) | binding of control IgG to peptide (OD at 405 nm) ([1]; control IgG 5 μg/ml) | binding of anti-Id to peptide (OD at 405 nm) ([2]; anti-Id 1 μg/ml) | binding of anti-Id to peptide (OD at 405 nm) ([2]; anti-Id 2.5 μg/ml) | binding of anti-Id to peptide (OD at 405 nm) ([2]; anti-Id 5 μg/ml) | binding of anti-Id to peptide (OD at 405 nm) [2, 4] | Substance | specificity of the elution peak from the column bound with the peptide [3] | induction of SLE-like disease in mice (mice) | induction of SLE-like disease in mice (mice; listed as pCDR3) |
| --- | --- | --- | --- | --- | --- | --- | --- | --- | --- |
| 0.079 | 0.083 | 0.113 | 0.234 | 0.611 | 0.987 | PPQKHLL [Pep 14] | – | – | – |
| – | – | – | – | – | – | YYCARFLWEPYAMDYWGQGS [Pep 707, 16.6 monoclonal antibody CDR3-based peptide] | reacted in a non-specific manner | can cause SLE symptoms | induced a mild SLE-like disease |
| 0.037 | 0.068 | 0.049 | 0.067 | 0.117 | 0.287 | KYKRKYP [Pep 15] | – | – | – |
| 0.069 | 0.078 | 0.112 | 0.099 | 0.387 | 0.748 | DWLYSRS [Pep 13] | – | – | – |
